Assay: relative thermodynamic stability of solid forms of Compound I as a function of water activity
Assay type: physicochemical
Details: from about 0 to 0.5 or 0.6 water activity at room temperature

thermodynamic stability relative to other forms of the compound: most thermodynamically stable form
Structure (SMILES): O=C(CCc1c(-c2ccc(F)cc2)[nH]c2ccccc12)N[C@@H]1C(=O)NC[C@H]1O [Compound 1 Form B]

— patent US20210246121A1, “SOLID FORMS OF APOL1 INHIBITOR AND METHODS OF USING SAME” (Vertex Pharmaceuticals Incorporated, priority 2020, published 2021)
